From ChEMBL document CHEMBL1201862, “PubChem BioAssay data set” (2004)
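Five concentrations, 48 hours, 96-well plates. Abbreviation: GI50, concentration required for 50% inhibition of growth.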 Active and inactive are the calls of the source. Cut-off read from the data, not from the text of the source: active = GI50 up to about 1.1 µM and inactive = higher.

What was measured:
Experiment in all cases: inhibition of tumour cell growth, NCI panel, 48 h
[1] = test system: 786-0
[2] = test system: A498
[3] = test system: A549
[4] = test system: ACHN
[5] = test system: BT-549
[6] = test system: CAKI-1
[7] = test system: CCRF-CEM
[8] = test system: COLO 205
[9] = test system: DU-145
[10] = test system: HCC 2998
[11] = test system: HCT-116
[12] = test system: HCT-15
[13] = test system: HL-60
[14] = test system: HOP-92
[15] = test system: K562
[16] = test system: LOX IMVI
[17] = test system: MDA-MB-231
[18] = test system: MDA-MB-435
[19] = test system: MDA-N
[20] = test system: NCI-H23
[21] = test system: NCI-H460
[22] = test system: OVCAR-4
[23] = test system: RPMI-8226
[24] = test system: RXF 393
[25] = test system: SF-295
[26] = test system: SK-MEL-28
[27] = test system: SK-MEL-5
[28] = test system: SK-OV-3
[29] = test system: SN12C
[30] = test system: SNB-19
[31] = test system: SR
[32] = test system: SW-620
[33] = test system: T47D
[34] = test system: TK-10
[35] = test system: U-251
[36] = test system: UACC-257
[37] = test system: UACC-62
[38] = test system: UO-31
[39] = test system: EKVX
[40] = test system: HOP-62
[41] = test system: HT-29
[42] = test system: Hs-578T
[43] = test system: IGROV-1
[44] = test system: KM12
[45] = test system: M14
[46] = test system: MCF7
[47] = test system: MOLT-4
[48] = test system: NCI-H226
[49] = test system: NCI/ADR-RES
[50] = test system: OVCAR-8
[51] = test system: PC-3
[52] = test system: SF-268
[53] = test system: SF-539
[54] = test system: SK-MEL-2
[55] = test system: SNB-75
[56] = test system: OVCAR-3
[57] = test system: OVCAR-5
[58] = test system: Malme-3M
[59] = test system: NCI-H522

Measured: GI50

Nc1nc2c(c(=O)[nH]1)C(c1ccc(Cl)cc1)C=C(c1ccccc1)N2 (stereo unspecified)
34.7 µM: [12]
inactive: [1] 25.4 µM | [2] 54.5 µM | [3] 25.9 µM | [4] 75.3 µM | [5] 35.1 µM | [6] 91.4 µM | [7] 24.8 µM | [8] 19.1 µM | [9] 29.4 µM | [10] 15.3 µM | [11] 16.3 µM | [13] 30.8 µM | [14] 20.4 µM | [15] 20.6 µM | [16] 45.3 µM | [17] 20.9 µM | [18] 15 µM | [19] 18.6 µM | [20] 24.4 µM | [21] 20.4 µM | [22] 21.6 µM | [23] 18.4 µM | [24] 43.6 µM | [25] 26.7 µM | [26] 22.6 µM | [27] 19.9 µM | [28] 23.8 µM | [29] 19.9 µM | [30] 37.9 µM | [31] 19.4 µM | [32] 18.1 µM | [33] 21.8 µM | [34] 51.6 µM | [35] 17.8 µM | [36] 54.8 µM | [37] 27.4 µM | [38] 92.7 µM

N#Cc1ccc(C(O)C(F)(F)c2nc3ccccc3o2)cc1 (stereo unspecified)
inactive: [1] 84.1 µM | [4] 83.9 µM | [5] 71.4 µM | [6] 31 µM | [7] 45.5 µM | [8] > 100 µM | [9] 35.7 µM | [39] > 100 µM | [10] > 100 µM | [11] 92.3 µM | [13] 43.6 µM | [40] > 100 µM | [14] 53.3 µM | [41] 81.3 µM | [42] > 100 µM | [43] 95.5 µM | [15] 18.2 µM | [44] 96.2 µM | [16] 42.9 µM | [45] 55.2 µM | [46] 46.1 µM | [17] 18.9 µM | [18] 44.8 µM | [47] 29.2 µM | [48] 32.9 µM | [20] > 100 µM | [21] > 100 µM | [49] 60.5 µM | [22] 95.5 µM | [50] 98.6 µM | [51] 33.1 µM | [23] 31.2 µM | [24] > 100 µM | [52] > 100 µM | [25] 41.8 µM | [53] 43.9 µM | [26] > 100 µM | [54] > 100 µM | [27] 37.2 µM | [28] > 100 µM | [30] > 100 µM | [55] > 100 µM | [31] 86.9 µM | [32] > 100 µM | [33] 37.2 µM | [34] > 100 µM | [35] > 100 µM | [36] 99.8 µM | [37] 40.9 µM | [38] 30.3 µM
> 100 µM: [12]

N#Cc1c(=O)c2ccccc2n2c1[nH]c1ccccc12
17.6 µM: [12]
active: [31] 0.618 µM
inactive: [1] 41 µM | [2] 25.1 µM | [3] 58.1 µM | [4] 58.6 µM | [5] 58.3 µM | [6] 35.2 µM | [7] 17.8 µM | [8] 43.1 µM | [9] 33.9 µM | [39] 25 µM | [10] 58.3 µM | [11] 30.5 µM | [13] 18.7 µM | [40] > 100 µM | [41] 30.5 µM | [42] 20.9 µM | [43] 16.1 µM | [15] 21.3 µM | [44] 27.4 µM | [16] 20.6 µM | [45] 57.5 µM | [46] 56.2 µM | [17] 54.6 µM | [18] 54 µM | [47] 12.4 µM | [48] 34.9 µM | [20] 55.2 µM | [21] 37 µM | [49] 15.3 µM | [56] 38.6 µM | [22] 24.1 µM | [57] > 100 µM | [50] 27.6 µM | [51] 29 µM | [23] 19.2 µM | [24] 4.44 µM | [52] 31.5 µM | [25] 32.8 µM | [53] 32.1 µM | [26] 52.2 µM | [54] 47.3 µM | [29] 32.3 µM | [30] 42.5 µM | [55] 43.1 µM | [32] 48.5 µM | [33] 22.7 µM | [34] 49.5 µM | [35] 34.1 µM | [36] 86.1 µM | [37] 29.4 µM | [38] 33.7 µM

Cn1c(-c2ccco2)ccc1-c1ccc(C=O)o1
72.4 µM: [12]
inactive: [1] > 100 µM | [2] 92.3 µM | [3] > 100 µM | [4] 49.7 µM | [5] 95.7 µM | [6] 13 µM | [7] 27.5 µM | [8] > 100 µM | [9] 52.4 µM | [39] 48.8 µM | [10] > 100 µM | [11] 24.2 µM | [13] 21.5 µM | [40] > 100 µM | [14] 31 µM | [41] 44.9 µM | [43] 38.2 µM | [15] 37.5 µM | [44] > 100 µM | [16] 34.8 µM | [45] 35 µM | [46] 30.5 µM | [17] 79.1 µM | [18] 68.1 µM | [19] 35.7 µM | [47] 23.3 µM | [58] > 100 µM | [48] > 100 µM | [20] 94.6 µM | [21] > 100 µM | [59] > 100 µM | [49] 33 µM | [56] 45.6 µM | [22] 56.4 µM | [57] > 100 µM | [50] 37.3 µM | [51] > 100 µM | [23] 29 µM | [24] > 100 µM | [25] > 100 µM | [53] 21.5 µM | [26] 48.6 µM | [54] > 100 µM | [27] 64.1 µM | [28] > 100 µM | [29] 77.6 µM | [30] > 100 µM | [55] > 100 µM | [31] 31 µM | [32] 33.4 µM | [33] 38.1 µM | [34] > 100 µM | [35] 39.1 µM | [36] > 100 µM | [37] 60.3 µM | [38] 46.7 µM

C/C(=C\COP(=O)(O)CP(=O)(O)O)CC/C=C(\C)CNc1ccccc1
inactive: [1] > 100 µM | [3] > 100 µM | [4] > 100 µM | [5] 14.6 µM | [6] > 100 µM | [7] > 100 µM | [8] > 100 µM | [9] > 100 µM | [39] 15.7 µM | [11] > 100 µM | [13] > 100 µM | [40] > 100 µM | [41] > 100 µM | [42] > 100 µM | [43] > 100 µM | [15] > 100 µM | [44] > 100 µM | [16] > 100 µM | [45] > 100 µM | [46] > 100 µM | [17] > 100 µM | [18] > 100 µM | [47] > 100 µM | [48] > 100 µM | [20] 6.28 µM | [21] > 100 µM | [59] > 100 µM | [49] > 100 µM | [56] > 100 µM | [57] > 100 µM | [50] > 100 µM | [51] > 100 µM | [23] > 100 µM | [24] > 100 µM | [52] > 100 µM | [25] > 100 µM | [53] > 100 µM | [26] > 100 µM | [54] > 100 µM | [27] > 100 µM | [28] > 100 µM | [29] > 100 µM | [30] > 100 µM | [55] > 100 µM | [32] > 100 µM | [33] > 100 µM | [34] > 100 µM | [35] > 100 µM | [36] > 100 µM | [37] > 100 µM | [38] > 100 µM
> 100 µM: [12]
